Key:
[1] = tested on: patients with moderate and severe migraine and a history of inadequate response to prior acute treatments; assay: Phase 3 randomized, double-blind, placebo- and active-controlled trial, acute treatment of moderate and severe migraine (Example 1), efficacy; type: in vivo, human
[2] = tested on: patients with moderate and severe migraine; settings: human, in vivo

- Dizziness, % of subjects [2]: 2.1%
- Dizziness, number of subjects [2]: 9
- Nausea, % of subjects [2]: 4.8%
- Nausea, number of subjects [2]: 21
- Somnolence, % of subjects [2]: 2.1%
- Somnolence, number of subjects [2]: 9
SMILES: CN(C)CCc1c[nH]c2ccc(Cn3cncn3)cc12 [rizatriptan, Rizatriptan]
- percentage of patients experiencing sustained pain relief from 2 hours to 24 hours after dosing ([1]; 2-24 hours): 43.9%
- proportion of patients with sustained pain freedom from 2 hours to 48 hours ([1]; 2-48 hours): 8.8%
- proportion of patients experiencing pain relief […] after dosing ([1]; […] after dosing): 52.5%
- Any Treatment-Emergent Adverse Event, % of subjects [2]: 15.4%
- Any Treatment-Emergent Adverse Event, number of subjects [2]: 67

Source: patent US20230372355A1 (AXSOME THERAPEUTICS, INC., priority 2022, published 2023)
